The record followed here is US11945819B1, “Dimethyl 7-bromo-1-(4-substituted benzoyl)pyrrolo[1,2-a]quinoline-2,3-dicarboxylates as anti-inflammatory agents” (KING FAISAL UNIVERSITY, priority 2023, dated 2024).

One data set has as its target bovine serum albumin (Bos taurus, UniProt P02769). As to the kind of experiment: In vitro anti-inflammatory activity by inhibition of bovine serum albumin denaturation. It counts as biochemical. To be noted: for % Inhibition at 10 μg: inhibition of heat-induced albumin denaturation (60° C., 10 min), turbidity, average of triplicate; for inhibition rate: at 10 μg, bovine serum albumin denaturation method. On the procedure: Accordingly, in an embodiment of the present subject matter, the dimethyl 7-bromo-1-(4- substituted benzoyl)pyrrolo[1,2-α]quinoline-2,3-dicarboxylates derivatives, or the dimethyl 7-bromo-1-(4-substituted benzoyl)pyrrolo[1,2-α]quinoline-2,3-dicarboxylates, as described herein were screened for their in vitro anti-inflammatory activity by inhibiting the bovine serum albumin denaturation method. The test compound is dissolved in a minimum amount of dimethyl sulphoxide (DMSO) and diluted with phosphate buffer. The final concentration of DMF in all solutions is less than 2.5%. Test solutions containing different concentrations of the drug is mixed with albumin solution in phosphate buffer and incubated at about 27-37° C.±10° C. for about at least 15 min. Denaturation is induced by keeping the reaction mixture at about 60° C.±10° C. in a water bath for at least about 10 min. After cooling, the turbidity is measured at about 210-660 nm (Shimadzu Spectrometer). Percentage inhibition of denaturation is calculated from a control where no drug was added. The percentage of inhibition is calculated from the following formula. The standard solution is also prepared as similar to that of the test solution. Ibuprofen can be used as a standard.
The newly synthesized compounds were screened for their in-vitro anti-inflammatory activity by inhibiting the bovine serum albumin denaturation method. The test compounds were dissolved in a minimum dimethyl sulphoxide (DMSO) and diluted with phosphate buffer (0.2M, pH 7.4). The final concentration of DMF in all solutions was less than 2.5%. Test solution (1 mL) containing different concentrations of the drug was mixed with 1 mL of 1 mm albumin solution in phosphate buffer and incubated at 27-37° C.±10° C. for 15 min. Denaturation was induced by keeping the reaction mixture at 60° C.±10° C. in a water bath for 10 min. After cooling, the turbidity was measured at 210-660 nm (Shimadzu Spectrometer). Percentage inhibition of denaturation was calculated from control where no drug was added. Each experiment was done in triplicate, and the average was taken. The percentage of inhibition is calculated from the following formula. The standard solution was also prepared as similar to that of the test solution. Ibuprofen was used as a standard.
The inhibition was calculated using the following equation: % Inhibition=100 (1−Vt/Vc) where, Vt=Drug absorbance of triplicate average Vc=Control absorbance of triplicate average

bovine serum albumin, sequence (P02769 25-607): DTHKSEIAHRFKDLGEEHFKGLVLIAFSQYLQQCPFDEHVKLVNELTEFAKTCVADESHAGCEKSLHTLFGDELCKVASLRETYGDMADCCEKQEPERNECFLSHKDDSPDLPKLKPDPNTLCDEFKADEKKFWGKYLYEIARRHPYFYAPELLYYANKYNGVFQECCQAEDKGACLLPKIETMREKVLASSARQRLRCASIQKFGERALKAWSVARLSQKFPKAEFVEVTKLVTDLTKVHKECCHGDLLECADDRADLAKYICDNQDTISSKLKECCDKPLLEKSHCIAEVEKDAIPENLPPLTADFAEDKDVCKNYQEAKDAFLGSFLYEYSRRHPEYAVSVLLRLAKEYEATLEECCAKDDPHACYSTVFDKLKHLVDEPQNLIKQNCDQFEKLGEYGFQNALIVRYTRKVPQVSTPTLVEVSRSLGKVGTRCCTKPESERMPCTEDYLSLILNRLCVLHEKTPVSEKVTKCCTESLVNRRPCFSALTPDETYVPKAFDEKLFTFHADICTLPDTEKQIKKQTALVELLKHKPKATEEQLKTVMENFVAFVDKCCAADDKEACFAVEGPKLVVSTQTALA

What is called melting point is the temperature of the solid-liquid transition. One may read the % Inhibition as how much of the control response was suppressed. A lower % Inhibition goes with a response near the control. In turn, `COC(=O)c1c(C(=O)OC)c2ccc3cc(Br)ccc3n2c1C(=O)c1ccc(F)cc1` [Compound 3a, dimethyl 7-bromo-1-(4-fluorobenzoyl)pyrrolo[1,2-α]quinoline-2,3-dicarboxylate] returned a melting point of 169 to 171 °C. In addition, at bovine serum albumin, the “% Inhibition at 10 μg” value was 49.75% and the inhibition rate is recorded as 49.75%.

As for `COC(=O)c1c(C(=O)OC)c2ccc3cc(Br)ccc3n2c1C(=O)c1ccc(Cl)cc1` [Compound 3b, dimethyl 7-bromo-1-(4-chlorobenzoyl)pyrrolo[1,2-α]quinoline-2,3-dicarboxylate], the melting point lay in the range of 210 to 212 °C. In addition, on bovine serum albumin, the “% Inhibition at 10 μg” value was found to be 42.52% and the inhibition rate came out at 42.52%.

On to `COC(=O)c1c(C(=O)OC)c2ccc3cc(Br)ccc3n2c1C(=O)c1ccc(Br)cc1` [Compound 3c, dimethyl 7-bromo-1-(4-bromobenzoyl)pyrrolo[1,2-α]quinoline-2,3-dicarboxylate], for which the melting point is 170 to 172 °C. At bovine serum albumin, the “% Inhibition at 10 μg” value came out at 54.35% and the inhibition rate came out at 54.35%.
